Test results as given in US8691859B2 (priority 2005, dated 2014).
In brackets after ≈: the same amount, converted by molar mass. Where two headings read alike, the source gives them in different places.

Experiments:
[1] = tested on: B. anthracis GFP sterne spores; test: microbe, parasite or virus in culture; type: cell-based; conditions: Bacillus anthracis
[2] = tested on: B. anthracis GFP sterne vegetative cells; test: microbe, parasite or virus in culture; type: cell-based; conditions: Bacillus anthracis, read-out: MIC B. anthracis vegetative cells
[3] = biological target: botulinum neurotoxin serotype A light chain (Clostridium botulinum, UniProt P0DPI0); type: biochemical, Clostridium botulinium
Sequence of botulinum neurotoxin serotype A light chain (P0DPI0 2-448 limits assumed): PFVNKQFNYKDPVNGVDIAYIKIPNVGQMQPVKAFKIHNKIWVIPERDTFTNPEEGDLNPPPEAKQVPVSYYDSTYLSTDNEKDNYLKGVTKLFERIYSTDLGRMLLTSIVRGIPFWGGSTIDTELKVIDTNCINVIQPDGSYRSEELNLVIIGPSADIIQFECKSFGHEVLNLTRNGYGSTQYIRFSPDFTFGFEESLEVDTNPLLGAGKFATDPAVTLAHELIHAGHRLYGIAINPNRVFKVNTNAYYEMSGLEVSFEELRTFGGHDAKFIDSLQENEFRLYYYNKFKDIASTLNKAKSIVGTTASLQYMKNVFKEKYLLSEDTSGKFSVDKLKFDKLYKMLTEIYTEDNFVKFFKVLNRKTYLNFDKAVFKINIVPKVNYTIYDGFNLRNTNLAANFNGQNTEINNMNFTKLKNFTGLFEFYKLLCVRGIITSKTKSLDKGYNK

anthrax lethal factor = anthrax lethal factor (Bacillus anthracis, UniProt P15917); type: biochemical
Sequence of anthrax lethal factor (P15917 34-809 limits assumed): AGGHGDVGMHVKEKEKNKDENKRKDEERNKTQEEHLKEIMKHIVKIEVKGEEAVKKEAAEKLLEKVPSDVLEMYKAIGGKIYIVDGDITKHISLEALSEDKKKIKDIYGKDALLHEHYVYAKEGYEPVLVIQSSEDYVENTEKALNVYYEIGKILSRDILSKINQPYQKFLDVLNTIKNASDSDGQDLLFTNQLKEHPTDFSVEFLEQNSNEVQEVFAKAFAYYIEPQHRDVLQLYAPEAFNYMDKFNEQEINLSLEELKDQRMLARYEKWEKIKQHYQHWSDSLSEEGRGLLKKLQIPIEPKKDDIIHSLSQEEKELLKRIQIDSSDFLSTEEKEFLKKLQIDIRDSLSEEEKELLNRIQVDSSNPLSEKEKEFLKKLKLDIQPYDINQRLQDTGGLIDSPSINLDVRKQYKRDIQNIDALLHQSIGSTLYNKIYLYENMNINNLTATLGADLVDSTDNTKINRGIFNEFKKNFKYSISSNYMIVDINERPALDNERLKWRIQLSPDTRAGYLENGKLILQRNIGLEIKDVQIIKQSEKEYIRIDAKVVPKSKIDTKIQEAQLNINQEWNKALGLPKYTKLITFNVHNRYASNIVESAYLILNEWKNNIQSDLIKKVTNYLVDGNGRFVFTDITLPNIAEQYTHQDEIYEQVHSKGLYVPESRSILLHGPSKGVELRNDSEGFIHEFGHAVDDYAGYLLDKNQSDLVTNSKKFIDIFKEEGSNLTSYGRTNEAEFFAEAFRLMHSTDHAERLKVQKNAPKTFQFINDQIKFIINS

B. anthracis Ames = test: microbe, parasite or virus in culture; type: cell-based; conditions: Bacillus anthracis
B. brevis = test: microbe, parasite or virus in culture; type: cell-based; conditions: Brevibacillus brevis
B. licheniformis = test: microbe, parasite or virus in culture; type: cell-based; conditions: Bacillus licheniformis
B. megaterium = test: microbe, parasite or virus in culture; type: cell-based; conditions: Priestia megaterium
B. pumilus = test: microbe, parasite or virus in culture; type: cell-based; conditions: Bacillus pumilus
Ames spores [4] = test: microbe, parasite or virus in culture; type: cell-based, B. anthracis; conditions: Bacillus anthracis
B. subtilis = test: microbe, parasite or virus in culture; type: cell-based; conditions: Bacillus subtilis
S. aureus = test: microbe, parasite or virus in culture; type: cell-based; conditions: Staphylococcus aureus
[5] = tested on: Methicillin resistant S. aureus; test: microbe, parasite or virus in culture; type: cell-based; conditions: Staphylococcus aureus
E. feacalis = test: organism not typed; type: cell-based
E. coli = test: microbe, parasite or virus in culture; type: cell-based; conditions: Escherichia coli
K. pneumoniae = test: microbe, parasite or virus in culture; type: cell-based; conditions: Klebsiella pneumoniae
P. aeruginosa PAO1 = test: microbe, parasite or virus in culture; type: cell-based; conditions: Pseudomonas aeruginosa
Y. pestis = test: microbe, parasite or virus in culture; type: cell-based; conditions: Yersinia pestis
Burkholderia mallei = test: microbe, parasite or virus in culture; type: cell-based
[6] = tested on: Burkholderia pseudomallei; test: microbe, parasite or virus in culture; type: cell-based
[7] = tested on: Burkholderia thailandensis; test: microbe, parasite or virus in culture; type: cell-based
B. cepacia = test: microbe, parasite or virus in culture; type: cell-based; conditions: Burkholderia cepacia
Ames spores [8] = test: microbe, parasite or virus in culture; type: cell-based, B. anthracis; conditions: Bacillus anthracis; remark: listed apart in the source
Sterne spores = type: cell-based, B. anthracis
Sterne GFP spores = type: cell-based, B. anthracis
B. vollum [9] = test: organism not typed; type: cell-based
B. vollum [10] = test: organism not typed; type: cell-based; remark: listed apart in the source
[11] = read-out: MIC B. anthracis spores

Structure (SMILES): NC(N)=NN=Cc1ccc2cc(-c3ccc(/C=N/N=C(N)N)cc3)sc2c1 [NSC 341909, 2-[[2-[4-[(E)-(diaminomethylidenehydrazinylidene)methyl]-phenyl]benzothiophen-6-yl]methylideneamino]guanidine]
- MIC [1, 11]: 4.51 µg/mL (≈ 11.9 µM)
- MIC [2]: 18 µg/mL (≈ 47.7 µM)
- inhibition of botulinum neurotoxin serotype A light chain metalloprotease activity [3]: inhibit
- inhibition of the protease activity of anthrax lethal factor (anthrax lethal factor): inhibit

Structure (SMILES): c1cc2cc(-c3ccc(-c4cc5ccc(C6=NCCN6)cc5[nH]4)cc3)[nH]c2cc1C1=NCCN1 [NSC 317881, 6-(4,5-dihydro-1H-imidazol-2-yl)-2-[4-[6-(4,5-dihydro-1H-imidazol-2-yl)-1H-indol-2-yl]phenyl]-1H-indole]
- MIC ([1]; 22 h, read-out: MIC (figure legend)): 0.084 µg/mL (≈ 0.189 µM)
- MIC [1, 11]: 0.162 µg/mL (≈ 0.364 µM)
- MIC [2]: 0.646 µg/mL (≈ 1.45 µM)
- MIC (B. anthracis Ames): 0.32 µg/mL (≈ 0.72 µM)
- MIC (B. brevis): 0.646 µg/mL (≈ 1.45 µM)
- MIC (B. licheniformis): 0.646 µg/mL (≈ 1.45 µM)
- MIC (B. megaterium): 0.323 µg/mL (≈ 0.727 µM)
- MIC (B. pumilus): 0.021 µg/mL (≈ 0.0472 µM)
- MIC (Ames spores [4]): 0.162 µg/mL (≈ 0.364 µM)
- MIC (B. subtilis): 0.162 µg/mL (≈ 0.364 µM)
- MIC (S. aureus): 0.323 µg/mL (≈ 0.727 µM)
- MIC [5]: 0.323 µg/mL (≈ 0.727 µM)
- MIC (E. feacalis): 0.162 µg/mL (≈ 0.364 µM)
- MIC (E. coli): 0.646 µg/mL (≈ 1.45 µM)
- MIC (K. pneumoniae): 10.3 µg/mL (≈ 23.3 µM)
- MIC (P. aeruginosa PAO1): 0.323 µg/mL (≈ 0.727 µM)
- MIC (Y. pestis): 20.7 µg/mL (≈ 46.5 µM)
- MIC (Burkholderia mallei): 10.3 µg/mL (≈ 23.3 µM)
- MIC [6]: > 20.7 µg/mL
- MIC [7]: 20.7 µg/mL (≈ 46.5 µM)
- MIC (B. cepacia): > 20.7 µg/mL
- MBC (Ames spores [8]): 0.162 µg/mL (≈ 0.364 µM)
- effect on spore germination (Sterne spores): does not have an effect on spore germination
- time after contact with germination medium by which treated spores were killed by heat (Sterne spores): ≤ 15 min
- reduction in cfu as compared to the DMSO control (Sterne GFP spores): considerable reduction
- treatment time after which no viable spores were detected (Sterne GFP spores): ~4 h
- inhibition of the protease activity of anthrax lethal factor (anthrax lethal factor): inhibit

Structure (SMILES): N=C(N)c1ccc(Oc2ccc(-c3cc4ccc(C(=N)N)cc4[nH]3)cc2)cc1 [NSC 240898, 2-[4-(4-carbamimidoylphenoxy)phenyl]-1H-indole-6-carboximidamide]
- MIC [1, 11]: 4.42 µg/mL (≈ 12 µM)
- MIC [2]: 4.42 µg/mL (≈ 12 µM)
- inhibition of botulinum neurotoxin serotype A light chain metalloprotease activity [3]: inhibit
- inhibition of the protease activity of anthrax lethal factor (anthrax lethal factor): inhibit

Structure (SMILES): c1cc2cc(-c3ccc4cc(C5=NCCN5)[nH]c4c3)[nH]c2cc1C1=NCCN1 [NSC 330687, 2-(4,5-dihydro-1H-imidazol-2-yl)-6-[6-(4,5-dihydro-1H-imidazol-2-yl)-1H-indol-2-yl]-1H-indole]
- MIC [1, 11]: 0.551 µg/mL (≈ 1.5 µM)
- MIC [2]: 1.1 µg/mL (≈ 2.99 µM)
- MIC (B. anthracis Ames): 1.1 µg/mL (≈ 2.99 µM)
- MIC (B. brevis): 0.276 µg/mL (≈ 0.749 µM)
- MIC (B. licheniformis): 2.21 µg/mL (≈ 5.99 µM)
- MIC (B. megaterium): 0.551 µg/mL (≈ 1.5 µM)
- MIC (B. pumilus): 0.138 µg/mL (≈ 0.375 µM)
- MIC (Ames spores [4]): 0.276 µg/mL (≈ 0.749 µM)
- MIC (B. subtilis): 0.551 µg/mL (≈ 1.5 µM)
- MIC (S. aureus): 1.1 µg/mL (≈ 2.99 µM)
- MIC [5]: 2.2 µg/mL (≈ 5.97 µM)
- MIC (E. feacalis): 2.21 µg/mL (≈ 5.98 µM)
- MIC (E. coli): 1.1 µg/mL (≈ 2.99 µM)
- MIC (K. pneumoniae): > 17.6 µg/mL
- MIC (P. aeruginosa PAO1): 17.6 µg/mL (≈ 47.9 µM)
- MIC (Y. pestis): 8.82 µg/mL (≈ 23.9 µM)
- MIC (Burkholderia mallei): 8.82 µg/mL (≈ 23.9 µM)
- MIC [6]: > 17.6 µg/mL
- MIC [7]: 17.6 µg/mL (≈ 47.9 µM)
- MIC (B. cepacia): 4.41 µg/mL (≈ 12 µM)
- MBC (Ames spores [8]): 0.276 µg/mL (≈ 0.749 µM)
- effect on spore germination (Sterne spores): results to those of NSC 317881 were obtained

Structure (SMILES): N=C(N)c1ccc2oc(/C=C/C=C/C=C/c3cc4cc(C(=N)N)ccc4o3)cc2c1 [NSC 308574, 2-[(1E,3E,5E)-6-(5-carbamimidoylbenzofuran-2-yl)hexa-1,3,5-trienyl]benzofuran-5-carboximidamide]
- MIC [1, 11]: 2.35 µg/mL (≈ 5.91 µM)
- MIC [2]: 9.38 µg/mL (≈ 23.7 µM)
- inhibition of botulinum neurotoxin serotype A light chain metalloprotease activity [3]: inhibit
- inhibition of the protease activity of anthrax lethal factor (anthrax lethal factor): inhibit

Structure (SMILES): c1cc2cc(-c3ccc4cc(-c5ccc6oc(C7=NCCN7)cc6c5)[nH]c4c3)[nH]c2cc1C1=NCCN1 [NSC 369718, 6-(4,5-dihydro-1H-imidazol-2-yl)-2-[2-[2-(4,5-dihydro-1H-imidazol-2-yl)benzofuran-5-yl]-1H-indol-6-yl]-1H-indole]
- MIC [1, 11]: 0.348 µg/mL (≈ 0.718 µM)
- MIC [2]: 0.696 µg/mL (≈ 1.44 µM)
- MIC (B. anthracis Ames): 1.39 µg/mL (≈ 2.87 µM)
- MIC (B. brevis): 0.174 µg/mL (≈ 0.359 µM)
- MIC (B. licheniformis): 1.39 µg/mL (≈ 2.87 µM)
- MIC (B. megaterium): 0.348 µg/mL (≈ 0.718 µM)
- MIC (B. pumilus): 0.348 µg/mL (≈ 0.718 µM)
- MIC (B. vollum [9]): 0.348 µg/mL (≈ 0.718 µM)
- MIC (Ames spores [4]): 0.174 µg/mL (≈ 0.359 µM)
- MIC (B. subtilis): 0.348 µg/mL (≈ 0.718 µM)
- MIC (S. aureus): 0.696 µg/mL (≈ 1.44 µM)
- MIC [5]: 2.79 µg/mL (≈ 5.75 µM)
- MIC (E. feacalis): 0.696 µg/mL (≈ 1.44 µM)
- MIC (E. coli): 1.39 µg/mL (≈ 2.87 µM)
- MIC (K. pneumoniae): 5.57 µg/mL (≈ 11.5 µM)
- MIC (P. aeruginosa PAO1): 1.39 µg/mL (≈ 2.87 µM)
- MIC (Y. pestis): 1.39 µg/mL (≈ 2.87 µM)
- MIC (Burkholderia mallei): 11.1 µg/mL (≈ 23 µM)
- MIC [6]: 2.79 µg/mL (≈ 5.75 µM)
- MIC [7]: 2.78 µg/mL (≈ 5.75 µM)
- MIC (B. cepacia): 22.3 µg/mL (≈ 46 µM)
- MBC (B. vollum [10]): 0.348 µg/mL (≈ 0.718 µM)
- MBC (Ames spores [8]): 0.174 µg/mL (≈ 0.359 µM)
- effect on spore germination (Sterne spores): results to those of NSC 317881 were obtained

Structure (SMILES): C(=C\c1cc2ccc(C3=NCCN3)cc2[nH]1)/c1cc2ccc(C3=NCCN3)cc2[nH]1 [NSC 317880, 6-(4,5-dihydro-1H-imidazol-2-yl)-2-[(E)-2-[6-(4,5-dihydro-1H-imidazol-2-yl)-1H-indol-2-yl]ethenyl]-1H-indole]
- MIC [1, 11]: 0.292 µg/mL (≈ 0.74 µM)
- MIC [2]: 1.17 µg/mL (≈ 2.96 µM)
- MIC (B. anthracis Ames): 0.584 µg/mL (≈ 1.48 µM)
- MIC (B. brevis): 0.584 µg/mL (≈ 1.48 µM)
- MIC (B. licheniformis): 2.33 µg/mL (≈ 5.92 µM)
- MIC (B. megaterium): 0.584 µg/mL (≈ 1.48 µM)
- MIC (B. pumilus): 0.146 µg/mL (≈ 0.37 µM)
- MIC (Ames spores [4]): 0.146 µg/mL (≈ 0.37 µM)
- MIC (B. subtilis): 0.292 µg/mL (≈ 0.74 µM)
- MIC (S. aureus): 1.17 µg/mL (≈ 2.96 µM)
- MIC [5]: 2.33 µg/mL (≈ 5.92 µM)
- MIC (E. feacalis): 0.584 µg/mL (≈ 1.48 µM)
- MIC (E. coli): 0.584 µg/mL (≈ 1.48 µM)
- MIC (K. pneumoniae): > 18.7 µg/mL
- MIC (P. aeruginosa PAO1): 1.17 µg/mL (≈ 2.96 µM)
- MIC (Y. pestis): 18.7 µg/mL (≈ 47.4 µM)
- MIC (Burkholderia mallei): 9.34 µg/mL (≈ 23.7 µM)
- MIC [6]: 18.7 µg/mL (≈ 47.4 µM)
- MIC [7]: 18.7 µg/mL (≈ 47.4 µM)
- MIC (B. cepacia): 18.7 µg/mL (≈ 47.4 µM)
- MBC (Ames spores [8]): 0.146 µg/mL (≈ 0.37 µM)
- effect on spore germination (Sterne spores): results to those of NSC 317881 were obtained
- inhibition of the protease activity of anthrax lethal factor (anthrax lethal factor): inhibit
